Measurements as given in article PMC6262012, “IMB-T130 targets 3-dehydroquinate synthase and inhibits Mycobacterium tuberculosis” (Scientific Reports, 2018).
In brackets after ≈: the same amount, converted by molar mass. Where two headings read alike, the source gives them in different places.

How the values were obtained:
[1] = system: M. tuberculosis H37Rv (ATCC27294) in J774A.1 mouse monocyte macrophages; assay: Intracellular anti-TB activity in macrophages; type: cell-based, Mycobacterium tuberculosis; conditions: for Log10CFU: 3 days, control 5.13 ± 0.03; for reduction in M. tuberculosis colony forming units (CFU): 3 days exposure
[2] = Oral tolerability in ICR mice; type: in vivo
Method: We speculated that the compound might have anti-TB activity in vivo. IMB-T130 was well tolerated in ICR mice at up to 500 mg/kg administered orally.

[3] = system: M. smegmatis strain with control vector (PMV261 plasmid); assay: MIC by plate dilution, M. smegmatis with control vector; type: cell-based, Mycobacterium smegmatis
Source text: (§1) To overexpress the MtDHQS protein in M. smegmatis, we used the plasmid pMV261-eGFP. The DHQS gene was inserted between the promoter and eGFP gene using BamHI and HindIII restriction enzyme sites so that DHQS was in frame with eGFP. The resulting pMV261:DHQS-eGFP plasmid was transformed into competent M. smegmatis cells. Recombinant protein expression was confirmed by fluorescence microscopy and western blotting with an anti-eGFP antibody. The MICs of IMB-T130 against M. smegmatis with a control vector (pMV261-eGFP plasmid), strains overexpressing a non-related gene (MtL12), and strains overexpressing DHQS-eGFP were determined by the conventional plate dilution method.

[4] = target: Mycobacterium tuberculosis 3-dehydroquinate synthase (MtDHQS) (Mycobacterium tuberculosis, UniProt P9WPX9); assay: DHQS enzyme assay (malachite green, free phosphoric acid); type: biochemical
Method: DHQS catalyse the conversion of DAHP to DHQ, and release a molecule of free phosphoric acid. The reaction was performed in a 50-µL volume with DHQS (1 μg/mL), NAD^+ (40 μg/mL), DAHP (10 μg/mL), and Tris-HCl (50 mM, pH 7.5). The solution was added to a 96-well plate and incubated for 40 min at 37 °C. Then, 100 µL of malachite green solution was added and the absorbance of the solution was measured at 620 nm[27].
We screened compounds with anti M. smegmatis activity for DHQS inhibitors. DHQS protein was pre-incubated with 0.5 μL of the test compound (10 μg/mL, dissolved in DMSO) at room temperature for 30 min in 49.5 μL of buffer (without DAHP); for the control group, 0.5 μL of DMSO was added. The reaction was initiated by adding 0.5 μL of DAHP solution followed by incubation (40 min, 37 °C). The absorbance was measured by a microplate reader. […] DHQS (1 μg/mL) was pre-incubated with increasing IMB-T130 concentrations (0.16–40 μg/mL) for 30 min at room temperature, with 1% DMSO used as a control.

[5] = target: T1, DHQS (Mycobacterium tuberculosis, UniProt P9WPX9); assay: SPR interaction between DHQS and IMB-T130 (NTA sensor chip); type: binding; conditions: 1.875–30 μM IMB-T130
Method: Surface plasmon resonance (SPR) could detect interactions between compounds and proteins. DHQS protein is unstable under acidic conditions, so the combination of IMB-T130 and DHQS was detected using nitrilotriacetic acid (NTA) sensor chip. The chips were coated with […] to capture the His-tagged protein and then exposed to a concentration gradient (1.875–30 μM) of IMB-T130. The response units were determined by SPR[16],[17].
An SPR experiment was performed to examine the interaction between DHQS and IMB-T130. Because the protein was unstable under acidic conditions, CM5 sensor chips were not suitable. […] The sensor chips were first coated with Ni^2+ before capturing the purified DHQS. Next, the chip was exposed to different concentrations of IMB-T130, and the response units for five different concentrations (1.875–30 μM) of IMB-T130 were measured by SPR (BIAcore X100 instrument, GE Healthcare).

[6] = system: M. smegmatis strain overexpressing MtL12; assay: MIC by plate dilution, M. smegmatis overexpressing MtL12; type: cell-based, Mycobacterium smegmatis; conditions: Mycolicibacterium smegmatis
Source text: as §1

[7] = system: M. smegmatis strain overexpressing MtDHQS; assay: MIC by plate dilution, M. smegmatis overexpressing MtDHQS; type: cell-based, Mycobacterium smegmatis; conditions: for MIC: Overexpressing MtDHQS
Source text: as §1

[8] = system: M. tuberculosis; conditions: cited from earlier work
[9] = Pharmacokinetic studies in rats; type: in vivo; conditions: male, Sprague Dawley, rat; for half-life: plasma
Method: Pharmacokinetic parameters were determined after administration of single oral and intravenous (iv) doses of IMB-T130 at 20 and 5 mg/kg, respectively, in male Sprague Dawley rats.
Animal care and all experimental procedures were performed in accordance with local, national, and ethical principles and authority regulations, and were approved by the Institutional Animal Care and Use Committee of the Institute of Medicinal Biotechnology Institute. Sprague Dawley rats (226.5–261.2 g) were used in the pharmacokinetic studies. The formulation of IMB-T130 (4 mg/mL) was prepared in 5 mL water with 0.5% sodium carboxyl methyl cellulose for oral administration. For iv administration, 7.5 mg IMB-T130 was dissolved in 0.075 mL N-methyl pyrrolidone, and 0.6 mL of PEG400 and 0.825 mL of 20% hydroxypropyl-β-cyclodextrin (aq) were added. After vortexing for 5 min, the 5 mg/mL IMB-T130 formulation was prepared. Rats were dosed at 1 mL/kg by iv injection and at 5 mL/kg by oral gavage at 0 h. A 0.2 mL blood sample was drawn from the jugular vein at 5, 15, and 30 min, and 1, 2, 4, 6, 8, and 24 h. The blood samples were centrifuged (8000 rpm, 6 min) at 4 °C for plasma separation. The IMB-T130 plasma concentration was determined by liquid chromatography-mass spectrometry using an ACQUITY UPLC BEH C18 column (Waters; 1.7 µm, 2.1 × 50 mm)[30].

[10] = target: T1, DHQS; assay: HPLC-Q-TOF mass spectrometry of intact DHQS after incubation with IMB-T130; conditions: suggests non-covalent binding
Method: In this study, HPLC-Q-TOF mass spectrometry was also performed to determine the molecular mass of the protein.

[11] = target: T1, DHQS; assay: Circular dichroism spectrum of DHQS and its complex with IMB-T130; type: binding
Source text: CD is widely used to examine protein structures in solution. In the far UV spectral region (180–240 nm), the CD spectrum reflects the absorption of peptide bonds, and provides some information about the secondary structural features of a protein[18]. We determined the CD spectrum of the native DHQS and the complex of DHQS and IMB-T130.

[12] = Mycolicibacterium smegmatis, read-out: MIC

Mycobacterium tuberculosis 3-dehydroquinate synthase (MtDHQS), sequence (P9WPX9 whole entry): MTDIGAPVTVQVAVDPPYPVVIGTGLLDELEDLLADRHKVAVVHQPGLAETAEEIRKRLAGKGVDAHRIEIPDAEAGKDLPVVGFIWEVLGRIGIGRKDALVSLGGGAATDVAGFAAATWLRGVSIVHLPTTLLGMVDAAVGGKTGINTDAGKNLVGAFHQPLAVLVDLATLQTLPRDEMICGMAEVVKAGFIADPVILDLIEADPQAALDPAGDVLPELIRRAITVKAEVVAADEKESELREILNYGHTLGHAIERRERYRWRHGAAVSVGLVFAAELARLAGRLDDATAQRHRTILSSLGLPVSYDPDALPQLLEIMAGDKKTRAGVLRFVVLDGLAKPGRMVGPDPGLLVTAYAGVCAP
T1 sequence (P9WPX9 whole entry): as above

**Q.** What does the source list for `CO[C@H]1/C=C/O[C@@]2(C)Oc3c(C)c(O)c4c(O)c(c(/C=N/N5CCN(C)CC5)c(O)c4c3C2=O)NC(=O)/C(C)=C\C=C\[C@H](C)[C@H](O)[C@@H](C)[C@@H](O)[C@@H](C)[C@H](OC(C)=O)[C@@H]1C` [RFP, rifampicin, reference compound]?
**A.** Log10CFU ([1]; 0.5 μg/mL): 4.25 ± 0.07; Log10CFU ([1]; 2 μg/mL): 3.74 ± 0.05; reduction in M. tuberculosis colony forming units (CFU) ([1]; 5 μg/mL): 1.84 log10; Log10CFU ([1]; 5 μg/mL): 3.29 ± 0.12

**Q.** With `O=C(Nc1nc(-c2ccccn2)cs1)c1ccc(Cl)s1` [IMB-T130, 5-chloro-N-[4-(pyridin-2-yl)-1,3-thiazol-2-yl] thiophene-2-carboxamide] as the compound, how does the Log10CFU ([1]; 1 μg/mL) read?
**A.** Its Log10CFU is 4.85 ± 0.06.

**Q.** And the “reduction in M. tuberculosis colony forming units (CFU)” value ([1]; 5 μg/mL)?
**A.** Its value is 1.07 log10.

**Q.** What about the Log10CFU ([1]; 5 μg/mL) of the same compound?
**A.** The Log10CFU was 4.06 ± 0.03.

**Q.** And the “reduction in M. tuberculosis colony forming units (CFU)” value ([1]; 10 μg/mL)?
**A.** The value was 1.36 log10.

**Q.** And the Log10CFU ([1]; 10 μg/mL)?
**A.** Its Log10CFU is 3.77 ± 0.10.

**Q.** And the “well tolerated oral dose” value ([2]; administered orally)?
**A.** Its value is “up to 500 mg/kg”.

**Q.** And the adverse effects ([2]; oral, over 72 hours)?
**A.** Its adverse effects is “No adverse effects were observed”.

**Q.** What about the MIC [3] of the same compound?
**A.** Its MIC is 0.312 µg/mL (≈ 0.97 µM).

**Q.** What about the MIC [3, 12] of the same compound?
**A.** Its MIC is 0.312 µg/mL (≈ 0.97 µM).

**Q.** And the IC50 ([4]; IC50, DHQS 1 μg/mL, pre-incubated 30 min at room temperature)?
**A.** Its IC50 is 2700 nM.

**Q.** And the remaining activity at 10 µg/mL ([4]; read-out: OD630 as % of the control (1% DMSO))?
**A.** Its remaining activity at 10 µg/mL is under 50%.

**Q.** And the SPR response units [5]?
**A.** Its SPR response units is “significant dose-dependent response”.

**Q.** What about the MIC [6] of the same compound?
**A.** Its MIC is 0.312 µg/mL (≈ 0.97 µM).

**Q.** What about the “MIC of DHQS-overexpression strain relative to control strain” value ([7]; DHQS-overexpression vs PMV261 control strain) of the same compound?
**A.** The value was “eight-fold higher”.

**Q.** What about the MIC [7, 12] of the same compound?
**A.** Its MIC is 2.5 µg/mL (≈ 7.77 µM).

**Q.** And the MIC [7]?
**A.** The MIC was 2.5 µg/mL (≈ 7.77 µM).

**Q.** And the “minimum inhibitory concentration MIC” value ([8]; strain not printed at the place)?
**A.** Its value is 0.08 µg/mL (≈ 0.249 µM).

**Q.** And the “anti-TB activity for susceptible strains” value ([8]; susceptible strains)?
**A.** Its value is “comparable anti-TB activity to rifampicin (RFP) and isoniazid (INH)”.

**Q.** And the half-life ([9]; iv 5 mg/kg)?
**A.** Its half-life is 2.13 h.

**Q.** And the half-life ([9]; po 20 mg/kg)?
**A.** The half-life was 2.17 h.

**Q.** And the bioavailability ([9]; in vivo)?
**A.** The bioavailability was 12.8%.

**Q.** And the AUC(0-t) ([9]; in vivo, iv, 5 mg/kg)?
**A.** The AUC(0-t) was 1.07 ng·h/mL.

**Q.** What about the Vd ([9]; in vivo, iv, 5 mg/kg) of the same compound?
**A.** The Vd was 14.9 L/kg.

**Q.** And the clearance ([9]; in vivo, iv, 5 mg/kg)?
**A.** Its clearance is 83.2 mL/min/kg.

**Q.** What about the AUC(0-t) ([9]; in vivo, po, 20 mg/kg) of the same compound?
**A.** Its AUC(0-t) is 0.55 ng·h/mL.

**Q.** What about the Cmax ([9]; in vivo, po, 20 mg/kg) of the same compound?
**A.** Its Cmax is 116 ng/mL.

**Q.** And the Tmax ([9]; in vivo, po, 20 mg/kg)?
**A.** The Tmax was 1.5 h.

**Q.** What about the “time exposure was higher than the MIC (80 ng/mL)” value ([9]; in vivo, po, 20 mg/kg) of the same compound?
**A.** The value was “about 4 hours”.

**Q.** What about the “intact mass of DHQS after incubation with compound” value [10] of the same compound?
**A.** Its value is “did not increase”.

**Q.** And the “β-turn composition of DHQS in the complex” value ([11]; native protein 11.2%)?
**A.** The value was 12.4%.

**Q.** And the “random coil composition of DHQS in the complex” value ([11]; native protein 13.4%)?
**A.** The value was 16.8%.

**Q.** What about the “α-helix composition of DHQS in the complex” value ([11]; native protein 71.6%) of the same compound?
**A.** Its value is 63.3%.

**Q.** Which MIC [3, 12] does the source give for `[H]/N=C(/N)N[C@H]1[C@H](O)[C@@H](O)[C@H](O[C@@H]2O[C@@H](C)[C@](O)(C=O)[C@H]2O[C@@H]2O[C@@H](CO)[C@H](O)[C@@H](O)[C@@H]2NC)[C@@H](N/C(N)=N\[H])[C@@H]1O` [Streptomycin, reference compound] here?
**A.** The MIC was 0.156 µg/mL (≈ 0.268 µM).

**Q.** And the MIC [6]?
**A.** Its MIC is 0.156 µg/mL (≈ 0.268 µM).

**Q.** What about the MIC [7, 12] of the same compound?
**A.** Its MIC is 0.156 µg/mL (≈ 0.268 µM).
